Literature values as cited in the CATMoS acute toxicity set (Mansouri et al. 2021).
“And” between values parts separate entries of the source, which are not always exact repeats. Equal values may be shown once.

assay: rat acute oral toxicity; details: in vivo
Excerpt: […]The data set underlying the modeling effort for this project was initially compiled by NICEATM and U.S. EPA’s CCTE. Briefly, LD50 data were collected from rat acute oral systemic toxicity tests, including limit tests, ranges/confidence intervals, and discrete LD50 values. The full data set included 21,200 LD50 entries for 15,688 substances. […] Data were reviewed to ensure that LD50 values with obvious errors in the extracted data such as unit conversion errors (e.g., comma and decimal separator misplacements) were either fixed or removed. After this review, 16,209 LD50 values remained. Many of the chemicals represented had multiple LD50 entries, requiring that a single representative value per Chemical Abstracts Service Registry Number (CASRN) identifier be defined to facilitate modeling efforts. Based on ATWG feedback and to define the representative LD50 as a protective value while accounting for the distribution across multiple LD50s, the median of the lowest quartile was computed using only discrete LD50 values (omitting limit test data and range and confidence interval data). A detailed summary of the data compilation is available online on the NICEATM webpage dedicated to the collaborative modeling project (NTP 2020).
[…][…] For categorical designations, limit test and range/confidence interval LD50 data were integrated wherever possible. As such, the number of chemicals with end point values/calls varies across the modeling end points (Table 3) based on whether chemicals had representative LD50 values and/or other data. If a chemical had both, the representative value was used to determine categorical calls rather than limit test data. Some data were useable only for certain end points and categories depending on the thresholds. For example, ranges that spanned multiple hazard categories were considered only for the binary (very toxic/nontoxic) end points and omitted from rendering a determination for hazard category assignment.
[…]The final data set comprising 11,992 chemicals was split into training and evaluation sets […], respectively. This process was performed semirandomly by ordering chemicals based on the five end points (categorical and continuous LD50 values) and partitioning every fourth record into the evaluation set accordingly. This approach was taken to ensure an equivalent distribution of the LD50 values and the different hazard categories between the training and the evaluation sets without supervised sampling of the chemicals based on structures (Figure 1A). The sources of the chemical structures were also kept equivalent between the two sets, with chemical structures obtained from DSSTox, being the highest quality, representing over 75% of each set (Figure 1B).

Structure (SMILES)	LD50
CCOP(=S)(OCC)Sc1nc(C)cc(C)n1	59 mg/kg
CC(C)c1noc2nc(C(C)(C)C)ncc12	15400 mg/kg
c1cc(CC2CO2)cc(CC2CO2)c1 (stereo not drawn)	4190 mg/kg
CNCC(O)c1cccc(NS(C)(=O)=O)c1 (stereo not drawn)	13 mg/kg
C[C@H](CCC(=O)O)[C@H]1CC[C@H]2[C@@H]3C(=O)C[C@@H]4CC(=O)CC[C@]4(C)[C@H]3CC(=O)[C@]12C	3760 mg/kg and 4000 mg/kg
CC(C)(C)NCCO	1620 mg/kg
CCN(CC)CCOc1ccc2c(c1)C(=O)c1cc(OCCN(CC)CC)ccc1-2	852 mg/kg
C=C(C)C(=O)OCC(=O)OCC	7880 mg/kg
C#CCOP(=O)(OCCC)c1ccccc1 (stereo not drawn)	362 mg/kg
CNC(=O)Oc1cc(C(C)(C)C)cc(C(C)(C)C)c1	1800 mg/kg
COC(=O)[C@H]1[C@H]2C[C@@H]3c4[nH]c5cc(OC)ccc5c4CCN3C[C@H]2C[C@@H](OC(=O)C=Cc2cc(OC)c(OC)c(OC)c2)[C@@H]1OC	1000 mg/kg
Cc1c(-c2ccccc2)oc2c(C(=O)O)cccc2c1=O	1660 mg/kg
FC(F)(F)c1ccccc1Br	2720 mg/kg
COC(=O)[C@H](C)N(OC)c1c(C)cccc1C	566 mg/kg
CC(=O)Oc1c(C)ncc2c1COC(C(C)C)OC2 (stereo not drawn)	2850 mg/kg
OCC1OC(n2cnc3c(S)ncnc32)C(O)C1O (stereo not drawn)	900 mg/kg
CC[P+](c1ccccc1)(c1ccccc1)c1ccccc1	200 mg/kg and 79 mg/kg
O=C1c2cc(Cl)ccc2OC2CCON12 (stereo not drawn)	1550 mg/kg
CC(C)CCP(=O)(CCC(C)C)CCC(C)C	2240 mg/kg
Cc1cc(C)nc(Nc2ccccc2)n1	4150 mg/kg
CCOP(=S)(OCC)SC(=O)CN(C)C(N)=O	16 mg/kg
COC(=O)[C@H]1[C@H]2C[C@@H]3c4[nH]c5cc(OC)ccc5c4CCN3C[C@H]2C[C@@H](OC(=O)c2cc(OC)c(OC)c(OC)c2)[C@@H]1OC	420 mg/kg
CN1C(C(=O)Nc2ccccn2)=C(O)c2sccc2S1(=O)=O	79 mg/kg
Clc1ccc(OCC2=NCCN2)cc1Cl	100 mg/kg

Structure (SMILES)	LD50
O=[N+]([O-])c1ccc2ccccc2c1	4400 mg/kg
O=CNc1ccc(Br)cc1	1120 mg/kg
COc1ccc2c(c1)c(CC(=O)Oc1ccc(NC(C)=O)cc1)c(C)n2C(=O)c1ccc(Cl)cc1	887 mg/kg
CC(=O)N[C@@H](Cc1c[nH]c2ccccc12)C(=O)O	15000 mg/kg
O=CCCCC(O)C=O (stereo not drawn)	17000 mg/kg
Clc1cc2c(cc1Cl)Oc1c(Cl)c(Cl)c(Cl)c(Cl)c1O2	0.887 mg/kg
CCN(CC)CCNC(=O)c1cc(Cl)c(N)cc1OCc1ccccc1	220 mg/kg
CC(C)CCCCCOP(OCCCCCC(C)C)OCCCCCC(C)C	9200 mg/kg
C=CC(CCC(=O)O)OC(C)=O (stereo not drawn)	543 mg/kg
Brc1nc(Br)c(Br)[nH]1	34 mg/kg
CCCCC[Si](OCC)(OCC)OCC	20000 mg/kg
O=S(=O)(NC(O)=NC1CCCCC1)c1ccc(Cl)cc1	1520 mg/kg
C=CC1OCC2(CO1)COC(C=C)OC2 (stereo not drawn)	3250 mg/kg
C=C1C[C@]23C[C@@]1(O)CC[C@H]2[C@@]12C=C[C@H](O)[C@@](C)(C(=O)O1)[C@H]2[C@@H]3C(=O)O	6300 mg/kg
CCC1(c2ccccc2)NC(=O)N(C)C1=O (stereo not drawn)	850 mg/kg
CC(Cc1ccccc1)NCCn1cnc2c1c(=O)n(C)c(=O)n2C (stereo not drawn)	100 mg/kg
Cn1c2c(c3ccc(N)cc31)CCCC2	705 mg/kg
O=C(O)c1c(Cl)c(Cl)c(Cl)c(Cl)c1C(O)=Nc1cccc(Cl)c1Cl	2340 mg/kg
CCOc1ccc(N(C)C(=O)C(C(C)O)N(C)C)cc1 (stereo not drawn)	1350 mg/kg
CCCCCCCCCCCCCCCCC[N+](C)(C)C	3650 mg/kg
Nc1c(CC(=O)O)cccc1C(=O)c1ccccc1	311 mg/kg
COP(=S)(OC)SCCSC(C)C	150 mg/kg
CON(C(=O)CSP(=S)(OC)OC)C(C)C	260 mg/kg
CCCC=C(C=NCCCCCCCCCCCCCCCCCCCCC)CC	5320 mg/kg
